What was measured:
hepatic metastases = details: human, in vivo
[1] = tested on: peritoneal carcinomatosis; assay: Instillation of chemotherapy directly into the abdomen with low energy ultrasound in a patient with peritoneal carcinomatosis (Examples III, IV); assay type: in vivo; details: with ultrasound at less than 100 kHz and less than 50 W; intraperitoneal instillation
Procedure: The chosen drug is dissolved in 100 ml of normal saline, injected into the catheter and followed by another 100 ml of normal saline for flushing. The patient's position is shifted every few minutes for an hour to disperse the drug. […] The chosen drug is bleomycin (15 units), 5-fluorouracil(1000 mg), thiotepa (45 mg) Adriamycin (30 mg) cisplatin, or a-IFN.
The procedure set forth in Example III is repeated with the chosen drug administered with microbubbles and the interval of repeated doses is further increased.

| Compound | drug toxicity (hepatic metastases) | interval of repeated doses [1] |
| --- | --- | --- |
| COc1cccc2c1C(=O)c1c(O)c3c(c(O)c1C2=O)C[C@@](O)(C(=O)CO)C[C@@H]3O[C@H]1C[C@H](N)[C@H](O)[C@H](C)O1 [Adriamycin, Doxorubicin] | less drug toxicity | increases the interval of repeated doses |
| N.N.[Cl][Pt][Cl] [cisplatin] | – | increases the interval of repeated doses |
| O=c1[nH]c(=O)n([C@H]2C[C@H](O)[C@@H](CO)O2)cc1F [flexuridine] | less drug toxicity | – |
| O=c1[nH]cc(F)c(=O)[nH]1 [fluorouracil] | less drug toxicity | increases the interval of repeated doses |
| S=P(N1CC1)(N1CC1)N1CC1 [thiotepa] | – | increases the interval of repeated doses |
| bleomycin | – | increases the interval of repeated doses |

— patent US20010039952A1, “ULTRASOUND ENHANCED CHEMOTHERAPY” (Walter A. Hacker, Ph. D, priority 1998, published 2001)
